Reference: publication PMC2362650, “Phase I and pharmacokinetic study of the topoisomerase II catalytic inhibitor fostriecin” (British Journal of Cancer, 1999)
“And” between values parts separate entries of the source, which are not always exact repeats. Identical values can stand only once. Like-named read-outs stand apart in the source and are kept apart here.

Assay: Plasma and urine pharmacokinetics (HPLC-UV) in patients after 60-min IV infusion
Assay type: in vivo, human
Settings: for half-life / Cmax / AUC / MRT: human, plasma, intravenous; for Cmax: observed value
Description: Fostriecin (CI-920) is a topoisomerase (topo) II catalytic activity inhibitor (Boritzki et al, 1988) (Figure 1). This novel class of topo II-targeting drugs is considered of potential value for treatment of patients with tumours resistant to classic topo II poisons, including anthracyclines and podophyllotoxins (Cummings and Smyth, 1993). The nuclear enzyme topo II is essential for the regulation of DNA conformation (reviewed in Osheroff et al, 1991). Central in its action is the formation of a complex with DNA. Stabilization of this complex by topo II poisons induces DNA damage and cell death (Froelich-Ammon and Osheroff, 1995). Decreased complex formation due to decreased topo II levels is considered to be an important mechanism of tumour-resistance to topo II poisons (Beck and Danks, 1991). The topo II catalytic inhibitor fostriecin is expected to have increased activity against tumour cells with low topo II levels and this was confirmed in in vitro studies (De Jong et al, 1991). […] Because of increased toxi- city of fostriecin in dogs compared to mice, a dose below one-third of the one-tenth mouse equivalent LD10, 2 mg m-2 day-1, was chosen as starting dose in humans (Clinical Brochure Fostriecin, 1991). […] We also performed an analysis of the human pharmacokinetics of fostriecin and ex vivo experiments to investigate if the plasma drug concentrations achieved were sufficient to inhibit a tenipo- side-resistant tumour cell line. The maximum tolerated dose (MTD) of fostriecin could not be established because drug supply was stopped prematurely. However, results of this study may provide a basis for continued clinical development of this agent. PATIENTS AND METHODS Patient selection, drug administration and evaluation Patient eligibility criteria were: histologically confirmed diagnosis of a solid tumour, no longer amenable to established forms of treatment; age 18-75 years; Eastern Cooperative Oncology Group (ECOG) performance status 2; life expectancy 12 weeks; no Phase I and pharmacokinetic study of the topoisomerase II catalytic inhibitor fostriecin RS de Jong1, NH Mulder1, DRA Uges2, DTh Sleijfer1, FJP Hoppener4, HJM Groen3, PHB Willemse1, WTA van der Graaf1 and EGE de Vries1 Departments of 1Medical Oncology, 2Pharmacy and Toxicology, and 3Pulmonary Diseases, University Hospital Groningen, The Netherlands; 4EORTC New Drug Development Office, Amsterdam, The Netherlands Summary We conducted a phase I and pharmacokinetic study of the topoisomerase II catalytic inhibitor fostriecin. Fostriecin was administered intravenously over 60 min on days 1-5 at 4-week intervals. Dose was escalated from 2 mg m-2 day-1 to 20 mg m-2 day-1 in 20 patients. Drug pharmacokinetics was analysed with high performance liquid chromatography with UV-detection. Plasma collected during drug administration was tested in vitro for growth inhibition of a teniposide-resistant small-cell lung cancer (SCLC) cell line. The predominant toxicities were elevated liver transaminases (maximum common toxicity criteria (CTC) grade 4) and serum creatinine (maximum CTC grade 2). […] Duration of elevated alanine-amino transferase (ALT) was dose-limiting in one patient at 20 mg m-2. Other frequent toxicities were grade 1-2 nausea/vomiting, fever and mild fatigue. […] A metabolite, most probably dephosphorylated fostriecin, was detected in plasma and urine. […] However, further escalation seems possible and is warranted to achieve potentially effective drug levels. Fostriecin has a short plasma half-life and longer duration of infusion should be considered. […]

[1] = patient no. 1, 2 mg m-2, day 1 course 1, one-compartment model
[2] = patient no. 3, 2 mg m-2, day 1 course 1, one-compartment model
[3] = patient no. 4, 2 mg m-2, day 1 course 1, one-compartment model
[4] = patient no. 5, 4 mg m-2, day 1 course 1, one-compartment model
[5] = patient no. 6, 4 mg m-2, day 1 course 1, one-compartment model
[6] = patient no. 7, 4 mg m-2, day 1 course 1, two-compartment model
[7] = patient no. 11, 6.6 mg m-2, day 1 course 1, two-compartment model
[8] = patient no. 12, 6.6 mg m-2, day 1 course 1, two-compartment model
[9] = patient no. 13, 10 mg m-2, day 1 course 1, two-compartment model
[10] = patient no. 15, 10 mg m-2, day 1 course 1, two-compartment model
[11] = patient no. 16, 12.2 mg m-2, day 1 course 1, two-compartment model
[12] = patient no. 18, 12.2 mg m-2, day 1 course 1, two-compartment model
[13] = patient no. 19, 20 mg m-2, sampling on day 1 of course 2, two-compartment model
[14] = patient no. 20, 20 mg m-2, day 1 course 1, two-compartment model

In the case of `C[C@@](O)(/C=C/[C@H]1CC=CC(=O)O1)[C@@H](C[C@@H](O)\C=C/C=C\C=C\CO)OP(=O)(O)O` [fostriecin], the half-life (12.2 mg, patient no. 16, 12.2 mg m-2, day 1 course 1, two-compartment model, read-out: t1/2 (terminal) (converted)) is reported as 70.2 min, the Cmax (12.2 mg, patient no. 18, 12.2 mg m-2, day 1 course 1) is reported as 2790 ng/mL and the AUC (12.2 mg, patient no. 18, 12.2 mg m-2, day 1 course 1, two-compartment model) is reported as 5320 ng·h/mL. For the same compound, the MRT (12.2 mg, patient no. 18, 12.2 mg m-2, day 1 course 1, two-compartment model, read-out: MRT) was 217 min, the half-life (12.2 mg, patient no. 18, 12.2 mg m-2, day 1 course 1, two-compartment model, read-out: t1/2 (initial) (converted)) was 27.6 min and the half-life (12.2 mg, patient no. 18, 12.2 mg m-2, day 1 course 1, two-compartment model, read-out: t1/2 (terminal) (converted)) was 306 min. For the same compound, the Cmax (20 mg, patient no. 19, 20 mg m-2, sampling on day 1 of course 2) was 3850 ng/mL, the AUC (20 mg, patient no. 19, 20 mg m-2, sampling on day 1 of course 2, two-compartment model) was 4450 ng·h/mL and the MRT (20 mg, patient no. 19, 20 mg m-2, sampling on day 1 of course 2, two-compartment model, read-out: MRT) was 22.8 min. The half-life (20 mg, patient no. 19, 20 mg m-2, sampling on day 1 of course 2, two-compartment model, read-out: t1/2 (initial) (converted)) was 1.8 min, the half-life (20 mg, patient no. 19, 20 mg m-2, sampling on day 1 of course 2, two-compartment model, read-out: t1/2 (terminal) (converted)) was 32.4 min and the Cmax (20 mg, patient no. 20, 20 mg m-2, day 1 course 1) was 6350 ng/mL. For the same compound, the AUC (20 mg, patient no. 20, 20 mg m-2, day 1 course 1, two-compartment model) was 9960 ng·h/mL, the MRT (20 mg, patient no. 20, 20 mg m-2, day 1 course 1, two-compartment model, read-out: MRT) was 49.8 min and the half-life (20 mg, patient no. 20, 20 mg m-2, day 1 course 1, two-compartment model, read-out: t1/2 (initial) (converted)) was 0.6 min. It also gave a half-life (20 mg, patient no. 20, 20 mg m-2, day 1 course 1, two-compartment model, read-out: t1/2 (terminal) (converted)) of 45.6 min, a half-life (two-compartment model, 95% CI 0-0.76 h, read-out: mean plasma half-life (initial) (converted)) of 21.6 min and an MRT (two-compartment model, 95% CI 0.41-1.97 h, read-out: mean residence time (MRT)) of 71.4 min. For the same compound, the half-life (two-compartment model, 95% CI 0.41-2.61 h, read-out: mean plasma half-life (terminal) (converted)) was 90.6 min, the “renal excretion as share of drug elimination” value (mean, patient nos 12-20, 95% CI 10-17.6%) was 14.6% and 15% and the Cl [1] was 5.14 l h-1 m-2. For the same compound, the Vd [1] was 4.44 l m-2, the Cl [2] was 2.40 l h-1 m-2 and the Vd [2] was 1.86 l m-2. For the same compound, the Cl [3] was 4.11 l h-1 m-2, the Vd [3] was 2.10 l m-2 and the Cl [4] was 2.81 l h-1 m-2. The Vd [4] was 2.03 l m-2, the Cl [5] was 3.05 l h-1 m-2 and the Vd [5] was 2.03 l m-2. The Cl [6] was 2.31 l h-1 m-2, the Vd [6] was 6.76 l m-2 and the Cl [7] was 4.06 l h-1 m-2. The Vd [7] was 2.75 l m-2, the Cl [8] was 2.63 l h-1 m-2 and the Vd [8] was 4.64 l m-2. The Cl [9] was 2.97 l h-1 m-2, the Vd [9] was 3.98 l m-2 and the Cl [10] was 2.66 l h-1 m-2. The Vd [10] was 5.34 l m-2, the Cl [11] was 2.84 l h-1 m-2 and the Vd [11] was 4.80 l m-2. It also gave a Cl [12] of 2.32 l h-1 m-2, a Vd [12] of 17.09 l m-2 and a Cl [13] of 4.52 l h-1 m-2. The Vd [13] was 3.39 l m-2, the Cl [14] was 1.83 l h-1 m-2 and the Vd [14] was 2.01 l m-2. For the same compound, the “mean volume of distribution (Vd)” value (two-compartment model, 95% CI 2.16-9.11) was 5.64 l m-2, the “mean Cl (apparent total body clearance)” value (two-compartment model, 95% CI 2.24-3.57) was 2.90 l h-1 m-2 and the “mean Cl (apparent total body clearance)” value (unit conversion of 2.90 l h-1 m-2) was 48.3 ml min-1 m-2.
